Source: ChEMBL document CHEMBL2440100, “Therapeutic potential of the peptide leucine arginine as a new nonplant bowman-birk-like serine protease inhibitor” (J Med Chem, 2013)
Where a SMILES comes first, the peptide text is derived from it. Bridges are numbered along the chain shown (N, C = ends).

assay: Inhibition of bovine trypsin using benzoyl-L-arginine p-nitroanilide as substrate after 5 to 60 mins; parameters: species or system Bos taurus

Row | SMILES | Ki [µM]
1 | CC(C)C[C@H](N)C(=O)N[C@H](C(=O)N[C@@H](CCCNC(=N)N)C(=O)NCC(=O)N[C@H]1CSSC[C@@H](C(=O)O)NC(=O)[C@@H]2CCCN2C(=O)[C@H](CCCCN)NC(=O)[C@@H]2CCCN2C(=O)[C@@H]2CCCN2C(=O)[C@H](Cc2ccc(O)cc2)NC(=O)[C@H](CO)NC(=O)[C@H](CCCCN)NC(=O)[C@H]([C@@H](C)O)NC(=O)[C@H](Cc2c[nH]c3ccccc23)NC1=O)C(C)C (H-LVRGCWTKSYPPKPC-OH; disulfide 5-15) | 0.322
2 | C[C@@H](O)[C@@H]1NC(=O)[C@H](Cc2c[nH]c3ccccc23)NC(=O)[C@@H](N)CSSC[C@@H](C(=O)O)NC(=O)[C@@H]2CCCN2C(=O)[C@H](CCCCN)NC(=O)[C@@H]2CCCN2C(=O)[C@@H]2CCCN2C(=O)[C@H](Cc2ccc(O)cc2)NC(=O)[C@H](CO)NC(=O)[C@H](CCCCN)NC1=O | 0.335
3 | CC(C)C[C@H](N)C(=O)N[C@H](C(=O)N[C@@H](CCCNC(=N)N)C(=O)NCC(=O)N[C@H]1CSSC[C@@H](C(=O)N[C@@H](Cc2ccccc2)C(=O)N[C@H](C(=O)N[C@@H](CCCNC(=N)N)C(=O)O)C(C)C)NC(=O)[C@@H]2CCCN2C(=O)[C@H](CCCCN)NC(=O)[C@@H]2CCCN2C(=O)[C@@H]2CCCN2C(=O)[C@H](Cc2ccc(O)cc2)NC(=O)[C@H](CO)NC(=O)[C@H](CCCCN)NC(=O)[C@H]([C@@H](C)O)NC(=O)[C@H](C)NC1=O)C(C)C (H-LVRGCATKSYPPKPCFVR-OH; disulfide 5-15) | 0.67
4 | CC(C)C[C@H](N)C(=O)N[C@H](C(=O)N[C@@H](CCCNC(=N)N)C(=O)NCC(=O)N[C@H]1CSSC[C@@H](C(=O)N[C@@H](Cc2ccccc2)C(=O)N[C@H](C(=O)N[C@@H](CCCNC(=N)N)C(=O)O)C(C)C)NC(=O)[C@H](C)NC(=O)[C@H](CCCCN)NC(=O)[C@@H]2CCCN2C(=O)[C@@H]2CCCN2C(=O)[C@H](Cc2ccc(O)cc2)NC(=O)[C@H](CO)NC(=O)[C@H](CCCCN)NC(=O)[C@H]([C@@H](C)O)NC(=O)[C@H](Cc2c[nH]c3ccccc23)NC1=O)C(C)C (H-LVRGCWTKSYPPKACFVR-OH; disulfide 5-15) | 0.252
5 | CC(C)C[C@H](N)C(=O)N[C@H](C(=O)N[C@@H](CCCNC(=N)N)C(=O)NCC(=O)N[C@H]1CSSC[C@@H](C(=O)N[C@@H](Cc2ccccc2)C(=O)N[C@H](C(=O)N[C@@H](CCCNC(=N)N)C(=O)O)C(C)C)NC(=O)[C@@H]2CCCN2C(=O)[C@H](CCCCN)NC(=O)[C@@H]2CCCN2C(=O)[C@@H]2CCCN2C(=O)[C@H](Cc2ccc(O)cc2)NC(=O)[C@H](C)NC(=O)[C@H](CCCCN)NC(=O)[C@H]([C@@H](C)O)NC(=O)[C@H](Cc2c[nH]c3ccccc23)NC1=O)C(C)C (H-LVRGCWTKAYPPKPCFVR-OH; disulfide 5-15) | 0.245
6 | CC(C)C[C@H](N)C(=O)N[C@H](C(=O)N[C@@H](CCCNC(=N)N)C(=O)NCC(=O)N[C@H]1CSSC[C@@H](C(=O)N[C@@H](Cc2ccccc2)C(=O)N[C@H](C(=O)N[C@@H](CCCNC(=N)N)C(=O)O)C(C)C)NC(=O)[C@@H]2CCCN2C(=O)[C@H](C)NC(=O)[C@@H]2CCCN2C(=O)[C@@H]2CCCN2C(=O)[C@H](Cc2ccc(O)cc2)NC(=O)[C@H](CO)NC(=O)[C@H](CCCCN)NC(=O)[C@H]([C@@H](C)O)NC(=O)[C@H](Cc2c[nH]c3ccccc23)NC1=O)C(C)C (H-LVRGCWTKSYPPAPCFVR-OH; disulfide 5-15) | 0.4
7 | CC(C)C[C@H](N)C(=O)N[C@H](C(=O)N[C@@H](CCCNC(=N)N)C(=O)NCC(=O)N[C@H]1CSSC[C@@H](C(=O)N[C@@H](Cc2ccccc2)C(=O)N[C@H](C(=O)N[C@@H](CCCNC(=N)N)C(=O)O)C(C)C)NC(=O)[C@H](CCCCN)NC(=O)[C@@H]2CCCN2C(=O)[C@@H]2CCCN2C(=O)[C@H](Cc2ccc(O)cc2)NC(=O)[C@H](CO)NC(=O)[C@H](CCCCN)NC(=O)[C@H]([C@@H](C)O)NC1=O)C(C)C (H-LVRGCTKSYPPKCFVR-OH; disulfide 5-13) | 0.245
8 | CC(C)C[C@H](N)C(=O)N[C@H](C(=O)N[C@@H](CCCNC(=N)N)C(=O)NCC(=O)N[C@H]1CSSC[C@@H](C(=O)N[C@@H](Cc2ccccc2)C(=O)N[C@H](C(=O)N[C@@H](CCCNC(=N)N)C(=O)O)C(C)C)NC(=O)[C@@H]2CCCN2C(=O)[C@H](CCCCN)NC(=O)[C@@H]2CCCN2C(=O)[C@@H]2CCCN2C(=O)[C@H](Cc2ccc(O)cc2)NC(=O)[C@H](CO)NC(=O)[C@H](CCCCN)NC(=O)[C@H](C)NC(=O)[C@H](Cc2c[nH]c3ccccc23)NC1=O)C(C)C (H-LVRGCWAKSYPPKPCFVR-OH; disulfide 5-15) | 1.11

Stronger by Ki, values ahead:

Row | Ki [µM] | SMILES
9 | 0.155 | CC(C)C[C@H](N)C(=O)N[C@H](C(=O)N[C@@H](CCCNC(=N)N)C(=O)NCC(=O)N[C@H]1CSSC[C@@H](C(=O)N[C@@H](Cc2ccccc2)C(=O)N[C@H](C(=O)N[C@@H](CCCNC(=N)N)C(=O)O)C(C)C)NC(=O)[C@@H]2CCCN2C(=O)[C@H](CCCCN)NC(=O)[C@H](C)NC(=O)[C@@H]2CCCN2C(=O)[C@H](Cc2ccc(O)cc2)NC(=O)[C@H](CO)NC(=O)[C@H](CCCCN)NC(=O)[C@H]([C@@H](C)O)NC(=O)[C@H](Cc2c[nH]c3ccccc23)NC1=O)C(C)C (H-LVRGCWTKSYPAKPCFVR-OH; disulfide 5-15)
10 | 0.142 | CC(C)C[C@H](N)C(=O)N[C@H](C(=O)N[C@@H](CCCNC(=N)N)C(=O)NCC(=O)N[C@H]1CSSC[C@@H](C(=O)N[C@@H](Cc2ccccc2)C(=O)N[C@H](C(=O)N[C@@H](CCCNC(=N)N)C(=O)O)C(C)C)NC(=O)[C@@H]2CCCN2C(=O)[C@H](CCCCN)NC(=O)[C@@H]2CCCN2C(=O)[C@@H]2CCCN2C(=O)[C@H](C)NC(=O)[C@H](CO)NC(=O)[C@H](CCCCN)NC(=O)[C@H]([C@@H](C)O)NC(=O)[C@H](Cc2c[nH]c3ccccc23)NC1=O)C(C)C (H-LVRGCWTKSAPPKPCFVR-OH; disulfide 5-15)
11 | 0.129 | C[C@H](NC(=O)[C@@H](N)CO)C(=O)N1CCC[C@H]1C(=O)N[C@@H](CCCNC(=N)N)C(=O)NCC(=O)N[C@H]1CSSC[C@@H](C(=O)N[C@@H](CCCCN)C(=O)O)NC(=O)[C@@H]2CCCN2C(=O)[C@H](CCCCN)NC(=O)[C@@H]2CCCN2C(=O)[C@@H]2CCCN2C(=O)[C@H](Cc2ccc(O)cc2)NC(=O)[C@H](CO)NC(=O)[C@H](CCCCN)NC(=O)[C@H]([C@@H](C)O)NC(=O)[C@H](Cc2c[nH]c3ccccc23)NC1=O (H-SAPRGCWTKSYPPKPCK-OH; disulfide 6-16)
12 | 0.116 | CC(C)C[C@H](NC(=O)[C@H](C)NC(=O)CN)C(=O)N[C@@H](CCCNC(=N)N)C(=O)NCC(=O)N[C@H]1CSSC[C@@H](C(=O)N[C@@H](CCCCN)C(=O)O)NC(=O)[C@@H]2CCCN2C(=O)[C@H](CCCCN)NC(=O)[C@@H]2CCCN2C(=O)[C@@H]2CCCN2C(=O)[C@H](Cc2ccc(O)cc2)NC(=O)[C@H](CO)NC(=O)[C@H](CCCCN)NC(=O)[C@H]([C@@H](C)O)NC(=O)[C@H](Cc2c[nH]c3ccccc23)NC1=O (H-GALRGCWTKSYPPKPCK-OH; disulfide 6-16)
13 | 0.02 | CC[C@H](C)[C@@H]1NC(=O)[C@@H]2CCCN2C(=O)[C@@H]2CCCN2C(=O)[C@H]([C@@H](C)CC)NC(=O)[C@H](CO)NC(=O)[C@H](CCCCN)NC(=O)[C@H]([C@@H](C)O)NC(=O)[C@@H](NC(=O)[C@H](CCCNC(=N)N)NC(=O)CN)CSSC[C@@H](C(=O)N[C@@H](Cc2ccccc2)C(=O)N2CCC[C@H]2C(=O)N[C@@H](CC(=O)O)C(=O)O)NC1=O
